Reference: PubChem BioAssay (NCI)
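These data come from cells grown in 96-well plates and exposed to compound for 48 hours at five concentrations. At the GI50, growth is halved. TGI marks complete inhibition of growth.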

Columns and labels:
Assay in all cases: NCI tumour cell line growth inhibition, 48 h
OVCAR-4 ovarian = tested on: OVCAR-4 ovarian
U251 CNS = tested on: U251 CNS
NCI-H23 lung = tested on: NCI-H23 lung
SF-295 CNS = tested on: SF-295 CNS
NCI-H460 lung = tested on: NCI-H460 lung
MDA-MB-435 = tested on: MDA-MB-435
SK-MEL-5 melanoma = tested on: SK-MEL-5 melanoma
ACHN renal = tested on: ACHN renal
UACC-62 melanoma = tested on: UACC-62 melanoma
HL-60(TB) leukemia = tested on: HL-60(TB) leukemia
SNB-75 CNS = tested on: SNB-75 CNS
IGROV1 ovarian = tested on: IGROV1 ovarian
EKVX NSCLC = tested on: EKVX NSCLC
MDA-MB-231 breast = tested on: MDA-MB-231 breast
SF-268 CNS = tested on: SF-268 CNS
MALME-3M melanoma = tested on: MALME-3M melanoma
HCT-15 colon = tested on: HCT-15 colon
RXF 393 renal = tested on: RXF 393 renal
SNB-19 CNS = tested on: SNB-19 CNS
A549 NSCLC = tested on: A549 NSCLC
K-562 leukemia = tested on: K-562 leukemia
SK-OV-3 ovarian = tested on: SK-OV-3 ovarian
NCI-H226 lung = tested on: NCI-H226 lung
OVCAR-5 ovarian = tested on: OVCAR-5 ovarian
SF-539 CNS = tested on: SF-539 CNS
DU-145 prostate = tested on: DU-145 prostate
NCI-H522 lung = tested on: NCI-H522 lung
KM12 colon = tested on: KM12 colon
BT-549 breast = tested on: BT-549 breast
T-47D breast = tested on: T-47D breast
HS 578T breast = tested on: HS 578T breast
CCRF-CEM leukemia = tested on: CCRF-CEM leukemia
NCI/ADR-RES ovarian = tested on: NCI/ADR-RES ovarian
TK-10 renal = tested on: TK-10 renal
HCC-2998 colon = tested on: HCC-2998 colon
OVCAR-8 ovarian = tested on: OVCAR-8 ovarian
CAKI-1 renal = tested on: CAKI-1 renal
MDA-MB-468 breast = tested on: MDA-MB-468 breast
COLO 205 colon = tested on: COLO 205 colon
SK-MEL-28 melanoma = tested on: SK-MEL-28 melanoma
SW-620 colon = tested on: SW-620 colon
UO-31 renal = tested on: UO-31 renal
RPMI-8226 leukemia = tested on: RPMI-8226 leukemia
LOX IMVI melanoma = tested on: LOX IMVI melanoma
M14 melanoma = tested on: M14 melanoma
SR leukemia = tested on: SR leukemia
HOP-92 NSCLC = tested on: HOP-92 NSCLC
UACC-257 melanoma = tested on: UACC-257 melanoma
A498 renal = tested on: A498 renal
SN12C renal = tested on: SN12C renal
PC-3 prostate = tested on: PC-3 prostate
HCT-116 colon = tested on: HCT-116 colon
SK-MEL-2 melanoma = tested on: SK-MEL-2 melanoma
OVCAR-3 ovarian = tested on: OVCAR-3 ovarian
786-0 renal = tested on: 786-0 renal
MOLT-4 leukemia = tested on: MOLT-4 leukemia
HOP-62 NSCLC = tested on: HOP-62 NSCLC
HT29 colon = tested on: HT29 colon

**Q.** Which results are given for `COc1cc2c3c(n(CCCN4CCOCC4)c(=O)c2cc1OC)-c1nc2c(cc1C3=O)OCO2`?
**A.** GI50 (OVCAR-4 ovarian): > 100 µM; TGI (OVCAR-4 ovarian): > 100 µM; GI50 (U251 CNS): 109 nM; TGI (U251 CNS): 3.78 µM; GI50 (NCI-H23 lung): 185 nM; TGI (NCI-H23 lung): 1520 nM; GI50 (SF-295 CNS): 55.6 nM; TGI (SF-295 CNS): 1700 nM; GI50 (NCI-H460 lung): 77.2 nM; TGI (NCI-H460 lung): 2350 nM; GI50 (MDA-MB-435): 828 nM; TGI (MDA-MB-435): > 100 µM; GI50 (SK-MEL-5 melanoma): 180 nM; TGI (SK-MEL-5 melanoma): 610 nM; GI50 (ACHN renal): 150 nM; TGI (ACHN renal): > 100 µM; GI50 (UACC-62 melanoma): 117 nM; TGI (UACC-62 melanoma): > 100 µM; GI50 (HL-60(TB) leukemia): 1250 nM; TGI (HL-60(TB) leukemia): > 100 µM; GI50 (SNB-75 CNS): 254 nM; TGI (SNB-75 CNS): > 64.5 µM; GI50 (IGROV1 ovarian): > 100 µM; TGI (IGROV1 ovarian): > 100 µM; GI50 (EKVX NSCLC): 1970 nM; TGI (EKVX NSCLC): > 100 µM; GI50 (MDA-MB-231 breast): 2380 nM; TGI (MDA-MB-231 breast): 5.62 µM; GI50 (SF-268 CNS): 892 nM; TGI (SF-268 CNS): > 100 µM; GI50 (MALME-3M melanoma): 1750 nM; TGI (MALME-3M melanoma): > 100 µM; GI50 (HCT-15 colon): 1240 nM; TGI (HCT-15 colon): > 100 µM; GI50 (RXF 393 renal): 1200 nM; GI50 (SNB-19 CNS): 271 nM; TGI (SNB-19 CNS): > 100 µM; GI50 (A549 NSCLC): 3.43 µM; TGI (A549 NSCLC): > 100 µM; GI50 (K-562 leukemia): 177 nM; TGI (K-562 leukemia): > 82.9 µM; GI50 (SK-OV-3 ovarian): 217 nM; TGI (SK-OV-3 ovarian): 4 µM; GI50 (NCI-H226 lung): 495 nM; TGI (NCI-H226 lung): > 33 µM; GI50 (OVCAR-5 ovarian): 4.91 µM; TGI (OVCAR-5 ovarian): > 100 µM; GI50 (SF-539 CNS): 226 nM; TGI (SF-539 CNS): 1330 nM; GI50 (DU-145 prostate): 418 nM; TGI (DU-145 prostate): > 100 µM; GI50 (NCI-H522 lung): 277 nM; TGI (NCI-H522 lung): 15.7 µM; GI50 (KM12 colon): > 53.9 µM; TGI (KM12 colon): > 100 µM; GI50 (BT-549 breast): 619 nM; TGI (BT-549 breast): 8.43 µM; GI50 (T-47D breast): 185 nM; TGI (T-47D breast): > 100 µM; GI50 (HS 578T breast): 25.3 µM; TGI (HS 578T breast): > 100 µM; GI50 (CCRF-CEM leukemia): 35.1 nM; TGI (CCRF-CEM leukemia): 1720 nM; GI50 (NCI/ADR-RES ovarian): 327 nM; TGI (NCI/ADR-RES ovarian): 3.68 µM; GI50 (TK-10 renal): > 100 µM; TGI (TK-10 renal): > 100 µM; GI50 (HCC-2998 colon): 1860 nM; TGI (HCC-2998 colon): > 100 µM; GI50 (OVCAR-8 ovarian): 2920 nM; TGI (OVCAR-8 ovarian): > 100 µM; GI50 (CAKI-1 renal): 159 nM; TGI (CAKI-1 renal): > 100 µM; GI50 (MDA-MB-468 breast): 130 nM; TGI (MDA-MB-468 breast): 0.51 µM; GI50 (COLO 205 colon): 1360 nM; TGI (COLO 205 colon): > 100 µM; GI50 (SK-MEL-28 melanoma): > 52 µM; TGI (SK-MEL-28 melanoma): > 100 µM; GI50 (SW-620 colon): 477 nM; TGI (SW-620 colon): > 100 µM; GI50 (UO-31 renal): 499 nM; TGI (UO-31 renal): > 100 µM; GI50 (RPMI-8226 leukemia): 341 nM; TGI (RPMI-8226 leukemia): > 56.4 µM; GI50 (LOX IMVI melanoma): 170 nM; TGI (LOX IMVI melanoma): 1470 nM; GI50 (M14 melanoma): 250 nM; TGI (M14 melanoma): > 100 µM; GI50 (SR leukemia): 60.6 nM; TGI (SR leukemia): > 49 µM; GI50 (HOP-92 NSCLC): 2870 nM; TGI (HOP-92 NSCLC): > 100 µM; TGI (UACC-257 melanoma): > 100 µM; GI50 (A498 renal): > 69.2 µM; TGI (A498 renal): > 100 µM; GI50 (SN12C renal): 2720 nM; TGI (SN12C renal): > 100 µM; GI50 (PC-3 prostate): 2090 nM; TGI (PC-3 prostate): > 100 µM; GI50 (HCT-116 colon): 416 nM; TGI (HCT-116 colon): > 100 µM; GI50 (SK-MEL-2 melanoma): > 100 µM; TGI (SK-MEL-2 melanoma): > 100 µM; GI50 (OVCAR-3 ovarian): 4.61 µM; TGI (OVCAR-3 ovarian): > 100 µM; GI50 (786-0 renal): 593 nM; TGI (786-0 renal): 29.4 µM; GI50 (MOLT-4 leukemia): 58.1 nM; TGI (MOLT-4 leukemia): 16 µM; GI50 (HOP-62 NSCLC): 51 nM; TGI (HOP-62 NSCLC): 748 nM; GI50 (HT29 colon): 442 nM; TGI (HT29 colon): 11.6 µM

**Q.** Which results are given for `CCOc1ccccc1NC1=C(Cl)C(=O)c2nc(C)ccc2C1=O`?
**A.** GI50 (MDA-MB-468 breast): 1450 nM; TGI (MDA-MB-468 breast): 2.88 µM

**Q.** With `O=C(Nc1cccc(-n2cc(-c3ccncc3)c(-c3ccc(Cl)c(O)c3)n2)c1)Nc1ccc(Cl)c(C(F)(F)F)c1` as the compound, how does the GI50 (MDA-MB-468 breast) read?
**A.** 547 nM

**Q.** What about the TGI (MDA-MB-468 breast) of the same compound?
**A.** 2.23 µM

**Q.** `O=C(/C=C/c1ccc(Cl)cc1)/C=C/c1cc2ccccc2[nH]c1=O` was tested. Which GI50 (MDA-MB-468 breast) did it give?
**A.** 2350 nM

**Q.** What about the TGI (MDA-MB-468 breast) of the same compound?
**A.** 6.01 µM

**Q.** What does the source list for `CC(=O)O[C@H]1CCC2(C)C(=CCC3C2CCC2(C)/C(=N/OC(=O)c4ccc(N(CCCl)CCCl)cc4)CCC32)C1` (stereo partly drawn)?
**A.** GI50 (MDA-MB-468 breast): 31100 nM; TGI (MDA-MB-468 breast): > 100 µM

**Q.** For `Nc1cc(-c2c[nH]c3ccc(Br)cc23)nc2cc(-c3c[nH]c4ccc(Br)cc34)nn12`, which GI50 (MDA-MB-468 breast) is on record?
**A.** 1590 nM

**Q.** And the TGI (MDA-MB-468 breast)?
**A.** 3.16 µM

**Q.** For `C[C@@H]1C[N+]2([O-])[C@H]3C4=CCC[C@@H]4CC[C@H]3[C@@]3(C)OC(=O)CC[C@]34CC[C@H]1[C@@H]42` (stereo partly drawn), which GI50 (MDA-MB-468 breast) is on record?
**A.** > 60000 nM

**Q.** And the TGI (MDA-MB-468 breast)?
**A.** > 60 µM

**Q.** Which GI50 (MDA-MB-468 breast) does the source give for `CN1CCN(CCCOc2ccc3nc(Nc4cc(Cl)cc(Cl)c4)ccc3c2)CC1` here?
**A.** 1600 nM

**Q.** And the TGI (MDA-MB-468 breast)?
**A.** 3.25 µM

**Q.** How did the GI50 (MDA-MB-468 breast) turn out when `COc1ccc(C(=O)c2cc(OC)c3c(c2)OCO3)cc1O` was run?
**A.** 366 nM

**Q.** What about the TGI (MDA-MB-468 breast) of the same compound?
**A.** 3.35 µM

**Q.** With `O=C(Nc1cccc(Cl)c1)Nc1nc2ccc([N+](=O)[O-])cc2s1` as the compound, how does the GI50 (MDA-MB-468 breast) read?
**A.** 1040 nM

**Q.** What about the TGI (MDA-MB-468 breast) of the same compound?
**A.** 3.25 µM

**Q.** For `COc1cc2ncn(-c3cc(O[C@H](C)c4ccccc4Cl)c(C(N)=O)s3)c2cc1OC`, which GI50 (MDA-MB-468 breast) is on record?
**A.** 7.89 nM

**Q.** And the TGI (MDA-MB-468 breast)?
**A.** 4 µM

**Q.** Which GI50 (MDA-MB-468 breast) does the source give for `Fc1cnc(NC2CC2)nc1-c1cnc2ccc(N3CCOCC3)cn12` here?
**A.** 182 nM

**Q.** And the TGI (MDA-MB-468 breast)?
**A.** 0.429 µM

**Q.** How did the GI50 (MDA-MB-468 breast) turn out when `O=c1c2ccc3cccc4c(=O)c5ccc6cccc1c6c5-c2c34` was run?
**A.** > 50000 nM

**Q.** What about the TGI (MDA-MB-468 breast) of the same compound?
**A.** > 50 µM
